The source of these data is patent US6803233B2, “Model for Alzheimer's disease and other neurodegenerative diseases” (priority 2000, dated 2004).

One assay concerns tau protein. Conditions: literature report; cited from earlier work.
For the next assay, the system named is tau proteins. The experiment in a line: Immunoblot with tau-1 antibody in cultured mouse hippocampal slices. It counts as cell-based. Conditions: six days of ZPAD; for reduction in native tau proteins (50-55 kDa): mean±s.e.m., n=6. As for the experimental part:
Hippocampal slices were prepared from 10 to 13 day old C57BL/6J (wild-type) and C57BL/6J-ApoE^tm1Unc (ApoE-knockout) mice obtained from the Jackson laboratory, Bar Harbor, Me. Pups were placed under light bromo-chloro-trifluoroethane anesthesia (Sigma, St. Louis, Mo.), and killed by decapitation. After removing the brains, the hippocampus was dissected and subsequently placed on a McIlwain tissue chopper where slices (400 μm thick) were obtained and placed in a solution of cutting medium consisting of Minimum Essential Medium (MEM) with Earle's salts (Gibco, Grand Island, N.Y.), 25 mM HEPES buffer, 10 mM Tris base, 10 mM glucose, and 3 mM MgCl2, pH 7.20. Hippocampal slices were then placed onto the membranes of Millicell-CM culture inserts (Millipore Corp., Bedford, Mass.) in 6 well culture cluster plates and 1 ml of media per well using the methods described by Stoppini et al., J. Neurosci. Methods 37(2):173-82 (1991). The culture medium was described previously by Bednarski et al., J. Neurosci. 17(11):4006-21 (1997). The cultures were incubated in a 37° C. atmosphere containing 5% CO2 and the culture medium was replaced every other day until the initiation of experiments. Each culture cluster plate contained hippocampal slices from either two wild-type or two apoE-knockout mice and individual wells were used for matched control and experimental treatment groups.
After maintaining the slices with normal culture medium (Bednarski et al., J. Neurosci. 17(11):4006-21 (1997)) in vitro for 12-14 days, slices were incubated with culture medium containing either 20 μM N-CBZ-L-phenylalanyl-L-alanine-diazomethyl-ketone (ZPAD; BACHEM Bioscience, Inc., Torrance, Calif.), an inhibitor of cathepsins B and L (Shaw & Dean, Biochem. J. 186:385-390 (1980); Green & Shaw, J Biol Chem. 256:1923-1928 (1981); Richardson et al., J. Cell Biol. 107: 2097-2107 (1988)) or vehicle (dimethylsulfoxide; DMSO, 0.01%-0.04%) for six days. This treatment media was exchanged every other day.
Control and ZPAD-treated slices were collected in ice-cold 10 mM Tris-HCl harvest buffer consisting of 0.32 M sucrose, 2 mM EDTA, 2 mM EGTA, and 0.1 mM leupeptin, pH 7.4, and centrifuged at 12,000×g for 5 minutes at 4° C. At this point, the pellets were resuspended in lysis buffer (8 mM HEPES, 1 mM EDTA, 0.3 mM EGTA, pH 8.0) and sonicated. The Bradford analysis was performed (Bradford, M, Anal. Biochem 72:248-254 (1976)) and 100-120 μg of protein from each sample was denatured by boiling for 5 min with 2.5% (wt/vol) sodium dodecyl sulfate (SDS) and 3% 2-mercaptoethanol and then subjected to SDS-PAGE on 10% linear gradient gels. See Laemmli et al., J. Mol. Biol. 47:69-85 (1970). […] Relative optical densities and areas of immunobands were quantified using the NIH image analysis system.
(In general: A western blot detects proteins with antibodies after separation by electrophoresis.)

The test system of a further assay is caspase 3. The assay can be described thus: ELISA assay of caspase 3 activity in cultured hippocampal slices. Conditions: slices cultured 12 days, treated 6 days. It counts as cell-based. As for the experimental part:
Hippocampal slices were cultured for 12 days and incubated with vehicle alone, ZPAD, or chloroquine (CQN; a lysosomal inhibitor) for 6 days (FIG. 28). Cultures were then homogenized, and subjected to an ELISA assay to detect the activity of caspase 3, an apoptotic protease.
For orientation: An ELISA detects its analyte on a solid surface through an enzyme-linked reagent.

For another assay, the system named is tangle-like structures. The assay can be described thus: AT8 immunostaining of cultured rat hippocampal slices. It counts as cell-based. Conditions: rat hippocampal slices; agent applied for 6 days.

“Also recorded” adds a separate entry of the source.

Protocol for tangle-like structures: Cultured slices were stained with anti-phosphorylated tau antibody AT8.
Cultures of hippocampal slices were prepared from 10-12 days old rats.
Cultured rat hippocampal slices of 12 days in vitro were treated with 20 μM pravastatin for 6 days and processed from immunohistological studies with the monoclonal antibody AT8. The subiculum, CA1 field, and CA3 field of the hippocampus were examined by photomicroscopy.

In the case of “N-CBZ-L-phenylalanyl-L-alanine-diazomethyl-ketone [ZPAD]”, in the assay with tau protein, the “29 kDa tau fragment (tau 29)” value is “production of a 29-kDa tau fragment; also recorded: delayed appearance of a 29 kDa fragment” and the “high molecular weight isoforms of tau protein” value was “degradation of high molecular weight isoforms of tau protein”. Moreover, in the assay on tau proteins (apoE-knockout mouse slices), the “increase in levels of the 15-35 kDa tau fragments” value was 277±20% and the “reduction in native tau proteins (50-55 kDa)” value is listed as 35±1.1%. In the assay with tau proteins (wild-type mouse slices), the “increase in levels of the 15-35 kDa tau fragments” value was 240±19% and the “reduction in native tau proteins (50-55 kDa)” value is recorded as 22±2.6%. Moreover, the “activity of caspase 3” value in the assay on caspase 3 is “marked increase”. In addition, in the assay with tangle-like structures, the “induction of AT8-immunoreactive tangle-like structures” value is “only a small number; also recorded: moderately increased; also recorded: induced numerous tangles”.
